Reference: patent publication US6783949B1, “Processes for determining whether a test substance contains lipases or lipase inhibitors” (Aventis Pharma Deutschland GmbH, priority 1999, dated 2004)

Target: T1, HSL (Rattus norvegicus, UniProt P15304)
T1 construct: The partially purified HSL can be stored at −70° C. for 4 to 6 weeks; from tissue; host or cells: rat epididymal fat cells (male Wistar rats)
T1 sequence (P15304 1-768 isoform P15304-2): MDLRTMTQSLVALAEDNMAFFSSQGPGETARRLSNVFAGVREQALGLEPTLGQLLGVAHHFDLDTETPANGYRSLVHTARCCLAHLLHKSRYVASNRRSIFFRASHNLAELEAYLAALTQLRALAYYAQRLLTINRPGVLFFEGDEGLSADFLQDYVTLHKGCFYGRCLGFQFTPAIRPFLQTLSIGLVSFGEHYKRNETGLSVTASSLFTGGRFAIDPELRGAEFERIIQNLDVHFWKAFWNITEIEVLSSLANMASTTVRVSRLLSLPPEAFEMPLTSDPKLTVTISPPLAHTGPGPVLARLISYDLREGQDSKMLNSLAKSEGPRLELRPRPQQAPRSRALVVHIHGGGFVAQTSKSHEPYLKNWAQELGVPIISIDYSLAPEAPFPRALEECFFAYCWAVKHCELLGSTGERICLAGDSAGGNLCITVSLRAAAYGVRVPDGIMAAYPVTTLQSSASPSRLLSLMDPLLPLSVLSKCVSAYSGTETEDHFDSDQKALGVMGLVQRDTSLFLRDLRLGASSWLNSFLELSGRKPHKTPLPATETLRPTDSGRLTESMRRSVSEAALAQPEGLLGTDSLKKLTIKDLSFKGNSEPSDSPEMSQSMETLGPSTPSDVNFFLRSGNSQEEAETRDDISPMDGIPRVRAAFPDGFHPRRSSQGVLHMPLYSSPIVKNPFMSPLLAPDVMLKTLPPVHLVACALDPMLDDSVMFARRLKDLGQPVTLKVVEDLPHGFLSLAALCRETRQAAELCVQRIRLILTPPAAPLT
Assay: Indirect NAG assay (extinction increase at 481 nm)
Assay type: biochemical
Details: 60 min
Experimental: A typical reaction is carried out at 30° C. for 60 min, for example in 1.5 ml Eppendorf vessels or 96-hole plates. […] 180 μl of the substrate solution (20 μg/ml of phosphatidylcholine, 10 μg/ml of phosphatidylinositol, 50 μg/ml of NAG in assay buffer) are added. After a preincubation for 15 min at 30° C., 20 μl of HSL in assay buffer are pipetted in and the extinction is immediately measured (see above) at 481 nm in a cuvette photometer (0.5 ml cuvette) or microtiter plate reader. After a certain incubation time, which is variable and depends on the chosen enzyme concentration and can be between 2 and 240 minutes, in this case incubation at 30° C. for 60 min, the extinction is measured again. The increase in the extinction in the yellow region, in this case at 481 nm, is a measure of the enzyme activity.
Isolated rat fat cells are obtained from epididymal fatty tissue from untreated male rats (Wistar, 220-250 g) by collagenase treatment according to published processes. The fat cells from 10 rats are washed three times by flotation with 50 ml each of homogenization buffer ([…], pH 7.4, 0.25 M sucrose, 1 mM ethylenediamine-N,N,N′,N′-tetraacetic acid (EDTA), 1 mM dithiothreitol (DTT), 10 μg/ml of leupeptin, 10 μg/ml of antipain, 20 μg/ml of pepstatin) and finally taken up in 10 ml of homogenization buffer. The fat cells are homogenized in a Teflon-in-glass homogenizer (Braun-Melsungen) by 10 strokes at 1500 rpm and 15° C. The homogenizate is centrifuged (Sorvall SM24 tubes, 5000 rpm, 10 min, 4° C.). The […] between the overlying fatty layer and the pellet is removed and the centrifugation is repeated. The […] resulting from this is centrifuged again (Sorvall SM24 tubes, 20,000 rpm, 45 min, 4° C.). […] After incubation for 60 min at 4° C. (shake at intervals of 15 min), the batch is centrifuged (Sorvall SM24 tubes, 3000 rpm, 10 min, 4° C.). The supernatant is brought to pH 5.2 by addition of glacial acetic acid and incubated at 4° C. for 30 min. […] The suspension is dialyzed overnight at 4° C. against 25 mM TRIS/HCl, pH 7.4, 50% glycerol, 1 mM DTT, and 10 μg/ml of leupeptin, pepstatin, and antipain and then applied to a hydroxylapatite column (0.1 g per 1 ml of suspension, equilibrated with 10 mM potassium phosphate, pH 7.0, 30% glycerol, 1 mM DTT). The column is washed with four volumes of equilibration buffer at a flow rate of 20 to 30 ml/h. The HSL is eluted with a volume of equilibration buffer which contains 0.5 M potassium phosphate, then dialyzed (see above) and concentrated 5 to 10 times by ultrafiltration (Amicon Diaflo PM 10 filter) at 4° C. The partially purified HSL can be stored at −70° C. for 4 to 6 weeks.
6 mg of phosphatidylcholine and 6 mg of phosphatidylinositol are dissolved in 1 ml of chloroform each. 10 mg of NAG are dissolved in 1 ml of chloroform. […] The chloroform (225 μl total volume) is completely removed by overblowing with a stream of N2. The dried substrate can be stored at 4° C. for up to three days. For the preparation of the phospholipid vesicles/micelles having intercalated NAG (on the test day), the dried substrate is taken up in 20 ml of assay buffer (25 mM TRIS/HCl, pH 7.4; 150 mM NaCl) and two ultrasonic treatments with an ultrasonic probe (Branson Sonifier type 11, standard microtip): 1st treatment setting 2, 2×1 min, in between in each case 1 min on ice; 2nd treatment setting 4, 2×1 min, in between in each case 1 min on ice. […] Before use as a substrate (within the next 2 h), the solution is additionally incubated on ice for 15 min.
The assay is carried out at 30° C. for 60 min in 1.5 ml Eppendorf vessels or 96-hole plates.

O=C(CCCCCCCCCCCNc1ccc([N+](=O)[O-])c2nonc12)OCC(O)CO (centres unmarked) [Compound (3)]
Increase in the absorption at 481 nm (NAG 0.075 mg/ml, HSL 40 μg): 15502 ± 1077 arb. units | Increase in the absorption at 481 nm (NAG 0.1 mg/ml, HSL 5 μg): 1521 ± 119 arb. units | Increase in the absorption at 481 nm (NAG 0.1 mg/ml, HSL 20 μg): 6124 ± 577 arb. units | Increase in the absorption at 481 nm (NAG 0.1 mg/ml, HSL 40 μg): 19223 ± 1599 arb. units | Increase in the absorption at 481 nm (NAG 0.15 mg/ml, HSL 5 μg): 1983 ± 155 arb. units | Increase in the absorption at 481 nm (NAG 0.15 mg/ml, HSL 20 μg): 7544 ± 603 arb. units | Increase in the absorption at 481 nm (NAG 0.15 mg/ml, HSL 40 μg): 26730 ± 2069 arb. units | Increase in the absorption at 481 nm (NAG 0.2 mg/ml, HSL 5 μg): 2242 ± 186 arb. units | Increase in the absorption at 481 nm (NAG 0.2 mg/ml, HSL 20 μg): 8898 ± 961 arb. units | Increase in the absorption at 481 nm (NAG 0.2 mg/ml, HSL 40 μg): 31641 ± 2304 arb. units | Increase in the absorption at 481 nm (NAG 0.3 mg/ml, HSL 5 μg): 2489 ± 213 arb. units | Increase in the absorption at 481 nm (NAG 0.3 mg/ml, HSL 20 μg): 9734 ± 825 arb. units | Increase in the absorption at 481 nm (NAG 0.3 mg/ml, HSL 40 μg): 35953 ± 3355 arb. units | Increase in the absorption at 481 nm (PI/PC 0 mg/ml, PI:PC 1:1, HSL 20 μg, NAG 0.05 mg/ml): 134 ± 23 arb. units | Increase in the absorption at 481 nm (PI/PC 0 mg/ml, PI:PC 1:3, HSL 20 μg, NAG 0.05 mg/ml): 89 ± 12 arb. units | Increase in the absorption at 481 nm (PI/PC 0 mg/ml, PI:PC 3:1, HSL 20 μg, NAG 0.05 mg/ml): 173 ± 42 arb. units | Increase in the absorption at 481 nm (PI/PC 0.009 mg/ml, PI:PC 1:1, HSL 20 μg, NAG 0.05 mg/ml): 548 ± 76 arb. units | Increase in the absorption at 481 nm (PI/PC 0.009 mg/ml, PI:PC 1:3, HSL 20 μg, NAG 0.05 mg/ml): 289 ± 77 arb. units | Increase in the absorption at 481 nm (PI/PC 0.009 mg/ml, PI:PC 3:1, HSL 20 μg, NAG 0.05 mg/ml): 1437 ± 132 arb. units | Increase in the absorption at 481 nm (PI/PC 0.018 mg/ml, PI:PC 1:1, HSL 20 μg, NAG 0.05 mg/ml): 1430 ± 188 arb. units | Increase in the absorption at 481 nm (PI/PC 0.018 mg/ml, PI:PC 1:3, HSL 20 μg, NAG 0.05 mg/ml): 692 ± 94 arb. units | Increase in the absorption at 481 nm (PI/PC 0.018 mg/ml, PI:PC 3:1, HSL 20 μg, NAG 0.05 mg/ml): 2610 ± 306 arb. units | Increase in the absorption at 481 nm (PI/PC 0.075 mg/ml, PI:PC 1:1, HSL 20 μg, NAG 0.05 mg/ml): 1138 ± 125 arb. units | Increase in the absorption at 481 nm (PI/PC 0.075 mg/ml, PI:PC 1:3, HSL 20 μg, NAG 0.05 mg/ml): 1679 ± 143 arb. units | Increase in the absorption at 481 nm (PI/PC 0.075 mg/ml, PI:PC 3:1, HSL 20 μg, NAG 0.05 mg/ml): 3365 ± 402 arb. units | Increase in the absorption at 481 nm (PI/PC 0.15 mg/ml, PI:PC 1:1, HSL 20 μg, NAG 0.05 mg/ml): 745 ± 97 arb. units | Increase in the absorption at 481 nm (PI/PC 0.15 mg/ml, PI:PC 1:3, HSL 20 μg, NAG 0.05 mg/ml): 912 ± 103 arb. units | Increase in the absorption at 481 nm (PI/PC 0.15 mg/ml, PI:PC 3:1, HSL 20 μg, NAG 0.05 mg/ml): 2108 ± 256 arb. units | Increase in the absorption at 481 nm (PI/PC 0.3 mg/ml, PI:PC 1:1, HSL 20 μg, NAG 0.05 mg/ml): 335 ± 47 arb. units | Increase in the absorption at 481 nm (PI/PC 0.3 mg/ml, PI:PC 1:3, HSL 20 μg, NAG 0.05 mg/ml): 427 ± 56 arb. units | Increase in the absorption at 481 nm (PI/PC 0.3 mg/ml, PI:PC 3:1, HSL 20 μg, NAG 0.05 mg/ml): 913 ± 102 arb. units | Extinction change at 480 nm (standard conditions, 20 μg of partially purified HSL): 4000 arb. units
